Assay [1] relates to A431 cells. Briefly: MEIRS measurement of the response of A431 cells to epidermal growth factor, PCA of reflectance spectra. It is filed as cell-based. Particulars: 40 nM EGF injected at t=240 min, time resolution 1 min. How it is done: (§1) The following method is used for monitoring a drug's effect of the cells. The method can be implemented using the same or similar detection unit 100, detection device 300, and detection system 10, as described above and shown in FIGS. 1 and 2-12. First, the metasurface 102 is assembled with the microfluidic chamber 302, and the cells are seeded on the metasurface 102 in culture media. The cells are then incubated until they are well-adhered on the metasurface 102. The metasurface 102 (with cells) is then transferred to a FTIR microscope 20 for continuous collection of IR spectra. […]
Referring briefly to FIG. 25, there are shown graphs of the resulting PCA scores/loadings obtained from A431 cells with the addition of epidermal growth factor (EGF). […] Specifically, 40 nM EGF was injected to the microfluidic measurement chamber 302 at t=240 min., while continuously monitored with time resolution of Δt=1 min. The measured reflectance spectra were analyzed using PCA. […] Although the biological interpretation of such signal is still not clear, it is hypothesized that the measured response corresponds to at least two processes in the cell, likely related to the cells' cytoskeletal reorganization in response of EGF.

Assay [2] has as its system A431 cells. Description: MEIRS monitoring of trypsinization (detachment of adherent cells from the metasurface), PCA of reflection spectra. Type of assay: cell-based. Particulars: 0.025% trypsin at t=66 min, between t=66 min and t=100 min, time resolution 1 min. The method, then:
as §1, with “spectra. Background spectra of the cells are collected for some time, before the drug to be tested is introduced to the cells via a microfluidic pump (such as a syringe pump 20 like that shown in FIG. 12).” for “spectra.”
Referring briefly to FIG. 24, there are shown contrast microscopy images of A431 cells on the metasurface 102 and graphs of the resulting PCA scores/loadings obtained from their spectra. The most robust adhesion-related effects, such as trypsinization (i.e., the detachment of adherent cells from the metasurface 102 by application of trypsin, a proteolytic enzyme that breaks down adhesion proteins), can be easily detected using MEIRS. […] Reflection spectra were analyzed using principal components analysis (PCA). […]

As to “epidermal growth factor (NSDSECPLSHDGYCLHDGVCMYIEALDKYACNCVVGYIGERCQYRDLKWWELR; Epidermal growth factor; UniProt P01133 971-1023, looked up) [EGF, epidermal growth factor (EGF)]”, in the assay on A431 cells [1], the “PC1 score response to EGF” value is “permanent change to the cell” and the “time for PC2 score to recover to the baseline level before the EGF injection” value is on record as “about 200 min”.

For trypsin, the “time evolution of the PC1 score (cell detachment from the metasurface)” value in the assay with A431 cells [2] is given as “rapid detachment of the cells”.

The values above are taken from US12292380B2, “Integrated microfluidic device for capture and spectroscopic characterization of live cells under various treatment conditions” (CORNELL UNIVERSITY, priority 2018, dated 2025).
